Source: patent US8013006B2

How the values were obtained:
HCV replicon = assay: microbe, parasite or virus in culture; format: cell-based; details: Hepatitis C virus, 48 h, read-out: Replicon IC5Os

Row | Structure (SMILES) | melting point [°C] | IC50 (HCV replicon) [nM]
1 | CCS(=O)(=O)Nc1ccc(-c2c(C#N)c3cc(Cl)ccc3n2CCC(C)C)cc1 [Compound 631] | 177 to 182 | 500 to 2000
2 | C=Cn1c(-c2ccc(NS(=O)(=O)CC)cc2)c(C#N)c2ccc(OC)cc21 [Compound 633] | 159 to 161 | 500 to 2000
3 | C=Cn1c(-c2ccc(NS(=O)(=O)C3CC3)cc2)c(C#N)c2ccc(OC)cc21 [Compound 635] | 200 to 201 | < 500
4 | CCCn1c(-c2ccc(NC(=O)OC(C)C)cc2)c(C#N)c2ccc(OC)cc21 [Compound 641] | 177 to 178 | 500 to 2000
5 | CCn1c(-c2ccc(CNS(C)(=O)=O)cc2)c(C#N)c2ccc(OC)cc21 [Compound 650] | 165 to 166 | 500 to 2000
6 | CCn1c(-c2ccc(N(C)S(=O)(=O)CCl)cc2)c(C#N)c2ccc(OC)cc21 [Compound 652] | 191 to 194 | < 500
7 | CCCOc1ccc2c(C#N)c(-c3ccc(N4CCCS4(=O)=O)cc3)n(CC)c2c1 [Compound 667] | 242 to 244 | < 500
8 | CCn1c(-c2ccc(NS(=O)(=O)CC)cc2)c(C#N)c2ccc(OCc3cccnc3)cc21 [Compound 669] | 213 to 215 | < 500
9 | CCn1c(-c2ccc(NS(=O)(=O)C3CC3)cc2)c(C#N)c2ccc(OCc3cccnc3)cc21 [Compound 670] | 231 to 233 | < 500
10 | CCn1c(-c2ccc(NS(=O)(=O)CC)cc2)c(C#N)c2ccc(OCc3ccccn3)cc21 [Compound 671] | 221 to 222 | < 500
11 | CCOC(=O)Nc1ccc(-c2c(C#N)c3ccc(OC)cc3n2CCOC)cc1 [Compound 676] | 174 to 175 | 500 to 2000
12 | CCCOC(=O)Nc1ccc(-c2c(C#N)c3ccc(OC)cc3n2CCOC)cc1 [Compound 677] | 133 to 134 | 500 to 2000
13 | CCNC(=O)N1CCc2cc(-c3c(C#N)c4ccc(OC)cc4n3CC)ccc21 [Compound 679] | 212 to 220 | 500 to 2000
14 | CCCNC(=O)N1CCc2cc(-c3c(C#N)c4ccc(OC)cc4n3CC)ccc21 [Compound 680] | 163 to 168 | < 500
15 | CCn1c(-c2ccc3c(c2)CCN3C(=O)NC(C)C)c(C#N)c2ccc(OC)cc21 [Compound 681] | 192 to 197 | 500 to 2000
16 | CCOc1ccc2c(C#N)c(-c3ccc(N(C)S(C)(=O)=O)cc3)n(C3CCC3)c2c1 [Compound 690] | 192 to 193 | 500 to 2000
17 | CCOc1ccc2c(C#N)c(-c3ccc(N(C)S(=O)(=O)CC)cc3)n(C)c2c1 [Compound 692] | 175 to 176 | 500 to 2000
18 | CCOc1ccc2c(C#N)c(-c3ccc(N(C)S(=O)(=O)CC)cc3)n(CC)c2c1 [Compound 693] | 163 to 164 | < 500
19 | CCn1c(-c2ccc(N3CCCS3(=O)=O)cc2)c(C#N)c2ccc(OCCF)cc21 [Compound 699] | 255 to 258 | < 500
20 | CCn1c(-c2ccc3c(c2)CCN3S(C)(=O)=O)c(C#N)c2ccc(OC)cc21 [Compound 701] | 188 to 194 | 500 to 2000
21 | CCn1c(-c2ccc3c(c2)CCN3S(=O)(=O)CC)c(C#N)c2ccc(OC)cc21 [Compound 702] | 147 to 150 | 500 to 2000
22 | CCCCn1c(-c2ccc(NS(=O)(=O)CC)cc2)c(C#N)c2ccc(OC)cc21 [Compound 707] | 159 to 161 | 500 to 2000
23 | CCCCn1c(-c2ccc(NS(=O)(=O)C3CC3)cc2)c(C#N)c2ccc(OC)cc21 [Compound 709] | 166 to 168 | < 500
24 | CCCn1c(-c2ccc(NS(=O)(=O)CC)cc2)c(C#N)c2cc(OCc3ccccc3)ccc21 [Compound 713] | 199 to 202 | 500 to 2000
